Patent publication US8058427B2, “Coumarin compounds and their use for treating cancer” (National Health Research Institutes, priority 2008, dated 2011)
Values belong to the compound of their own block, whether it stands above or below them.

Columns and labels:
Format in all cases: cell-based
[1] = system: HONE-1 (nasopharyngeal carcinoma); experiment: Growth inhibition, methylene blue dye assay, HONE-1; conditions: Homo sapiens, HONE1, 72 h
Procedure: (§1) Compound 1 was evaluated against 21 human tumor cell lines derived from nine cancer cell types: nasopharyngeal carcinoma (HONE-1, CPT 30, and HONE-cis6), cervical carcinoma (KB, KB-CPT100, KB7D, KB-1036, KB-S15, and KB-vin10), gastric carcinoma (TSGH), breast carcinoma (MCF-7), colorectal carcinoma (HT29), non-small cell lung carcinoma (H460), lymphoma (BJAB and H9), leukemia (CEM and HL 60), and hepatocellular carcinoma (Hep 3B, Hep G2, Huh 7, and Hcc36). […] Compound 140 was tested against the following 15 cell lines: HONE-1, CPT 30, and HONE-cis6, KB, KB-CPT100, KB7D, KB-1036, KB-S 15, and KB-vin10, TSGH, MCF-7, H460, BJAB, H9, and Hep G2. Compound 32 was tested against the following 8 cell lines: HONE-1, KB, TSGH, MCF-7, H460, BJAB, H9, and Hep G2.
(§2) Cells in logarithmic growth phase were cultured at a density of 5000 cells/ml/well in a 24-well plate. Drug-resistant cells were cultured in a medium free of test compounds for 3 days before use. The cells were exposed to various concentrations of a test compound for 72 h. The methylene blue dye assay was used to evaluate the effect of the test compound on cell growth, as has been described in Finlay et al., Anal. Biochem. 1984, 139, 272-277. The IC50 value resulting from 50% inhibition of cell growth was calculated graphically as a comparison with control growth.

[2] = system: CPT30 (nasopharyngeal carcinoma); experiment: Growth inhibition, methylene blue dye assay, CPT30; conditions: Homo sapiens; CPT30, drug-resistant, camptothecin-driven selection, 72 h
Procedure: as §1, §2

[3] = system: HONE-cis6 (nasopharyngeal carcinoma); experiment: Growth inhibition, methylene blue dye assay, HONE-cis6; conditions: Homo sapiens; HONE-cis6, drug-resistant, cisplatin-driven selection, 72 h
Procedure: as §1, §2

KB (cervical carcinoma) = experiment: Growth inhibition, methylene blue dye assay, KB; conditions: Homo sapiens, 72 h
Procedure: as §1, §2

[4] = system: KB-CPT100 (cervical carcinoma); experiment: Growth inhibition, methylene blue dye assay, KB-CPT100; conditions: Homo sapiens, KBCPT100; KB-CPT100, drug-resistant, camptothecin-driven selection, 72 h
Procedure: as §1, §2

[5] = system: KB7D (cervical carcinoma); experiment: Growth inhibition, methylene blue dye assay, KB7D; conditions: Homo sapiens, VP-16-driven selection, 72 h
Procedure: as §1, §2

[6] = system: KB-1036 (cervical carcinoma); experiment: Growth inhibition, methylene blue dye assay, KB-1036; conditions: Homo sapiens; KB-1036, D-501036 driven selection, 72 h
Procedure: as §1, §2

[7] = system: KB-S15 (cervical carcinoma); experiment: Growth inhibition, methylene blue dye assay, KB-S15; conditions: Homo sapiens; KB-S15, drug-resistant, paclitaxel-driven selection, 72 h
Procedure: as §1, §2

[8] = system: KB-vin10 (cervical carcinoma); experiment: Growth inhibition, methylene blue dye assay, KB-vin10; conditions: Homo sapiens; KB-vin10, vincristine-driven selection, 72 h
Procedure: as §1, §2

TSGH (gastric carcinoma) = experiment: Growth inhibition, methylene blue dye assay, TSGH; conditions: Homo sapiens, 72 h
Procedure: as §1, §2

MCF-7 (breast carcinoma) = experiment: Growth inhibition, methylene blue dye assay, MCF7; conditions: Homo sapiens, MCF7, 72 h
Procedure: as §1, §2

[9] = system: HT29 (colorectal carcinoma); experiment: Growth inhibition, methylene blue dye assay, HT29; conditions: Homo sapiens, HT-29, HT29, 72 h
Procedure: as §1, §2

[10] = system: H460 (non-small cell lung carcinoma); experiment: Growth inhibition, methylene blue dye assay, H460; conditions: Homo sapiens, NCI-H460, H460, 72 h
Procedure: as §1, §2

BJAB (lymphoma) = experiment: Growth inhibition, methylene blue dye assay, BJAB; conditions: Homo sapiens, 72 h
Procedure: as §1, §2

H9 (lymphoma) = experiment: Growth inhibition, methylene blue dye assay, H9; conditions: Homo sapiens, H9, 72 h
Procedure: as §1, §2

CEM (leukemia) = experiment: Growth inhibition, methylene blue dye assay, CEM; conditions: Homo sapiens, 72 h
Procedure: as §1, §2

HL 60 (leukemia) = experiment: Growth inhibition, methylene blue dye assay, HL60; conditions: Homo sapiens, HL60, 72 h
Procedure: as §1, §2

[11] = system: Hep 3B (hepatocellular carcinoma); experiment: Growth inhibition, methylene blue dye assay, Hep 3B; conditions: Homo sapiens, Hep3B, 72 h
Procedure: as §1, §2

[12] = system: Hep G2 (hepatocellular carcinoma); experiment: Growth inhibition, methylene blue dye assay, Hep G2; conditions: Homo sapiens, HepG2, Hep G2, 72 h
Procedure: as §1, §2

[13] = system: Huh 7 (hepatocellular carcinoma); experiment: Growth inhibition, methylene blue dye assay, Huh 7; conditions: Homo sapiens, Huh 7, 72 h
Procedure: as §1, §2

[14] = system: Hcc36 (hepatocellular carcinoma); experiment: Growth inhibition, methylene blue dye assay, Hcc36; conditions: Homo sapiens, Hcc36, 72 h
Procedure: as §1, §2

human tumor cell lines = experiment: Growth inhibition, methylene blue dye assay, panel of tumor cell lines; conditions: most of the tested cell lines, 72 h
Procedure: as §1, §2

[15] = system: Human cervical carcinoma KB cells; experiment: Growth inhibition assay, KB cells (MTS); conditions: 72 h, read-out: IC50 (concentration causing 50% cell growth inhibition)
Procedure: Anticancer activities of the compounds of this invention were evaluated using a growth inhibition assay described in Kuo et al., Cancer Res. 2004, 64(13), 4621-4628.
Human cervical carcinoma KB cells were maintained in plastic dishes in DMEM medium supplemented with 10% fetal bovine serum. For in vitro treatment, tumor cells were seeded in […] of culture medium/well in 96-well plates to a final cell density of 6×10^3 cell/mL and incubated in a CO2 incubator at 37° C. for 24 h. The cells were treated with at least five different concentrations of a test compound, and incubated in a CO2 incubator at 37° C. for 72 h. The number of viable cells was estimated using MTS assay and absorbance was measured at 490 nm. For each test compound, dose-response curves were measured with at least five different drug concentrations, and the concentration causing 50% cell growth inhibition (IC50) compared with the control was calculated.

SMILES: Cc1cc(=O)oc2c1ccc1oc(C(=O)c3ccccc3)c(-c3ccccc3)c12 [Compound 1, 8-benzoyl-4-methyl-9-phenyl-furo[2,3-h]chromen-2-one]
- IC50 [1]: 2 nM
- IC50 [2]: 8.5 nM
- IC50 [3]: 4.5 nM
- IC50 (KB (cervical carcinoma)): 1.3 to 1.8 nM
- IC50 [4]: 6.25 nM
- IC50 [5]: 0.8 nM
- IC50 [6]: 4 nM
- IC50 [7]: 0.5 nM
- IC50 [8]: 2.5 nM
- IC50 (TSGH (gastric carcinoma)): 17 nM
- IC50 (MCF-7 (breast carcinoma)): 4 nM
- IC50 [9]: 7 nM
- IC50 [10]: 0.5 nM
- IC50 (BJAB (lymphoma)): 110 nM
- IC50 (H9 (lymphoma)): 3.5 nM
- IC50 (CEM (leukemia)): 1000 nM
- IC50 (HL 60 (leukemia)): 1000 nM
- IC50 [11]: 35000 nM
- IC50 [12]: 3500 nM
- IC50 [13]: 26700 nM
- IC50 [14]: 10800 nM
- IC50 (human tumor cell lines): < 10 nM

SMILES: COc1ccc(C(=O)c2oc3ccc4c(C)cc(=O)oc4c3c2-c2ccccc2)cc1 [Compound 32]
- IC50 [1]: 55 nM
- IC50 (KB (cervical carcinoma)): 41 nM
- IC50 (TSGH (gastric carcinoma)): 150 nM
- IC50 (MCF-7 (breast carcinoma)): 150 nM
- IC50 [10]: 40 nM
- IC50 (BJAB (lymphoma)): 45 nM
- IC50 (H9 (lymphoma)): 124 nM
- IC50 [12]: 5500 nM
- IC50 (human tumor cell lines): < 150 nM

SMILES: Cc1cc(=O)oc2c1ccc1oc(C(=O)c3ccccc3)c(-c3ccc(Br)cc3)c12 [Compound 140]
- IC50 [1]: 3 nM
- IC50 [2]: 10.5 nM
- IC50 [3]: 10 nM
- IC50 (KB (cervical carcinoma)): 7.7 nM
- IC50 [4]: 9 nM
- IC50 [5]: 8 nM
- IC50 [6]: 13 nM
- IC50 [7]: 10 nM
- IC50 [8]: 10 nM
- IC50 (TSGH (gastric carcinoma)): 41 nM
- IC50 (MCF-7 (breast carcinoma)): 13 nM
- IC50 [10]: 3 nM
- IC50 (BJAB (lymphoma)): 60 nM
- IC50 (H9 (lymphoma)): 20 nM
- IC50 [12]: 2600 nM
- IC50 (human tumor cell lines): < 10 nM

SMILES: Cc1cc(=O)oc2c1ccc1oc(C(=O)c3cccc(OCCN[C@@]45C[C@@H]6C[C@@H](C[C@@](O)(C6)C4)C5)c3)c(-c3ccccc3)c12 [Compound 183]
- IC50 [15]: 101 to 999 nM

SMILES: Cc1cc(=O)oc2c1ccc1oc(C(=O)c3cccc(OCCO)c3)c(-c3ccccc3)c12 [Compound 184]
- IC50 [15]: 101 to 999 nM

SMILES: Cc1cc(=O)oc2c1ccc1oc(C(=O)c3cccc(OCCO[Si](C)(C)C(C)(C)C)c3)c(-c3ccccc3)c12 [Compound 189]
- IC50 [15]: 101 to 999 nM

SMILES: Cc1cc(=O)oc2c1ccc1oc(C(=O)c3cccc(OCCCO[Si](C)(C)C(C)(C)C)c3)c(-c3ccccc3)c12 [Compound 190]
- IC50 [15]: 101 to 999 nM

SMILES: Cc1cc(=O)oc2c1ccc1oc(C(=O)c3cccc(OCCCCCCO[Si](C)(C)C(C)(C)C)c3)c(-c3ccccc3)c12 [Compound 193]
- IC50 [15]: 101 to 999 nM

SMILES: CC(=O)OCC1C(OCCOc2cccc(C(=O)c3oc4ccc5c(C)cc(=O)oc5c4c3-c3ccccc3)c2)OC(OC(C)=O)C(OC(C)=O)C1OC(C)=O (stereo not drawn) [Compound 194]
- IC50 [15]: 101 to 999 nM

Further lines, results first:

- IC50 [15]: 101 to 999 nM
SMILES: Cc1cc(=O)oc2c1ccc1oc(C(=O)c3cccc(OCCCOC4OC(CO)C(O)C(O)C4O)c3)c(-c3ccccc3)c12 (stereo not drawn) [Compound 197]

- IC50 [15]: 101 to 999 nM
SMILES: Cc1cc(=O)oc2c1ccc1oc(C(=O)c3ccccc3O)c(-c3ccccc3)c12 [Compound 204]

- IC50 [15]: 101 to 999 nM
SMILES: Cc1cc(=O)oc2c1ccc1oc(C(=O)c3ccccc3)c(-c3cccc4ccccc34)c12 [Compound 206]

- IC50 [15]: 1000 to 10000 nM
SMILES: Cc1cc(=O)oc2c1ccc1oc(C(=O)c3ccc4ccccc4c3)c(-c3ccc(Br)cc3)c12 [Compound 208]

- IC50 [15]: 101 to 999 nM
SMILES: Cc1cc(=O)oc2c1ccc1oc(C(=O)c3ccc(F)cc3)c(-c3ccc(Br)cc3)c12 [Compound 209]

- IC50 [15]: 1000 to 10000 nM
SMILES: Cc1cc(=O)oc2c1ccc1oc(C(=O)c3ccc(Cl)cc3)c(-c3ccc(Br)cc3)c12 [Compound 210]

- IC50 [15]: 1000 to 10000 nM
SMILES: Cc1cc(=O)oc2c1ccc1oc(C(=O)c3ccc(Br)cc3)c(-c3ccc(Br)cc3)c12 [Compound 211]
